Settings: 0.1 mmol/l orthophosphate added to DUOSOL 4551 after the start of the precipitation, 40° C.
From the text: The pH at which a significant precipitation of calcium carbonate starts is a criterion for the stability of the solution and is subsequently called pHmax. […] The time at which the significant precipitation of calcium carbonate starts is subsequently called tG to represent the “time of germination”.
The stabilizing effect of a subsequent addition of phosphate or of a phosphate ester to existing dialysis solutions was examined using the rapid degassing method in a carousel setup. THz rapid degassing method in this variant allows an accelerated aging of dialysis solutions by degassing the CO2 from the bicarbonate buffer. The degassing of CO2 that normally occur slowly during the life of the products can be simulated within a few hours with this experiment setup.
Three separate experiments are carried out for each data point and the mean value is used.
That is, after a specific time period, 2.5 ml of a parent solution having 100 mmol/l glycerophosphate is added to the flasks containing 250 ml DUOSOL 4551, which results in a concentration of 1.0 mmol/l of glycerophosphate in the flask.

SMILES: O=P(O)(O)O [orthophosphate]
- dissolution of existing calcium carbonate precipitate: not observed
- effect on precipitation of calcium carbonate: inhibiting effect

— patent US20220202940A1, “METHOD OF STABILIZING A DIALYSIS SOLUTION” (Fresenius Medical Care Deutschland GmbH, priority 2018, published 2022)
